PubChem BioAssay AID2060904 (Molecular Pharmacology Branch, DTP, NCI, 2025)

Tested on: 349418-098-R-PDC complex spheroid viability
Experiment: Anticancer human tumor 349418-098-R-PDC patient-derived lung adenocarcinoma cell line growth inhibition [RAS]
Details: for IC50: curve of first compound; for viability, T/C: stronger effect = lower value
Excerpt: RAS pathway inhibitors in Combinations in Complex Spheroids
A high-throughput screen of multi-cell type tumor spheroids was designed to identify active combinations of RAS pathway inhibitors and targeted small molecules. Complex spheroids include a stromal component modeled by human endothelial cells (HUVEC) and fibroblasts modeled by human mesenchymal stem cells (MSCs). The concentration ranges selected for each drug and investigational agent were based upon clinically achievable concentrations if the clinical Cmax of the agent was known.
Compounds. The drugs and investigational agents: abemaciclib (NSC768073), cobimetinib (NSC768068), divarasib (GDC6063, NSC841802), docetaxel (NSC628503), GDC-1971 (RLY-1971, NSC841576), gemcitabine (NSC613327), inavolisib (NSC800729), ipatasertib (NSC767898), KB-0742 (NSC834161), MRTX-1133 (NSC836407), osimertinib (NSC779217), RMC-4630 (NSC839698), RMC-6236 (NSC851965), RMC-6291 (NSC852671), Ro-3306 (NSC812927), sapanisertib (NSC764658), SN-38 (NSC673596), staurosporine (NSC755774), SY5609 (NSC837396), and tovorafenib (DAY101, NSC766906), were obtained from the National Cancer Institute (NCI) Developmental Therapeutics Program Chemical Repository. The FDA-approved anticancer drug set is available from the NCI Developmental Therapeutics Program. […] The stock solutions were prepared in dimethyl sulfoxide (DMSO, Sigma-Aldrich, St. Louis, MO, cat. D2650) at 800-fold the tested concentration and stored at -70 degrees C prior to their use. All drugs and investigational agents were tested over a range starting from a high concentration at or near the clinical Cmax and decreasing in half-log increments. If the clinical Cmax for an agent had not been determined, the highest concentration tested was 10 microM.
Cell Culture. All cells were maintained in an incubator at 37 degrees C and 5% CO2 with 95% humidity. The PDC lines were cultured according to standard operating procedures established by the NCI PDMR. All PDCs were thawed and cultured in Matrigel-coated flasks prepared with a working solution of 1X Ham's F-12 nutrient mix, without supplementation (Invitrogen, Waltham, MA, cat. 11765054), 100 U/mL penicillin-streptomycin (Invitrogen, cat. 15140122), and 2.5% Matrigel (Corning Inc., Corning, NY, cat. 354248) for the first three passages. The 362531-283-R-J2-PDC and 782815-120-R-J1-PDC lines were cultured in 6C/Colon 1B media, which includes advanced DMEM/F-12 (Thermo Fisher Scientific, cat. 12634028), 10 mM HEPES (Thermo Fisher Scientific, cat. 15630080), 1X GlutaMAX supplement (Thermo Fisher Scientific, cat. 35050061), 0.1 mg/mL primocin (InvivoGen, San Diego, CA, cat. ant-pm-2), 10% defined fetal bovine serum, heat inactivated (HyClone Laboratories Inc., Logan, UT, cat. SH30070.03HI), 50% L-WRN conditioned media (ATCC, cat. CRL-3276), 1.25 mM N-Acetyl-L-cysteine (Sigma-Aldrich, cat. A9165), 10 mM nicotinamide (Sigma-Aldrich, cat. N0636), 1X B-27 supplement (Thermo Fisher Scientific, cat. 17504044), 1X N-2 supplement (Thermo Fisher Scientific, cat. 17502048), 50 ng/mL human EGF (Thermo Fisher Scientific, cat. PHG0311), and 10 microM Y-27632 dihydrochloride (Tocris Bioscience, cat. 1254). The K12877-001-R-J1-PDC line was cultured in 6I media, which includes all 6C/Colon 1B media plus 10 ng/mL human FGF-10 (PeproTech, cat. 100-26), 1 ng/mL human FGF-2 (PeproTech, cat. 100-18B), 1 µM prostaglandin E2 (Tocris Bioscience, cat. 2296), […] hydrocortisone (Sigma-Aldrich, cat. H4001), and […] bovine insulin (Sigma-Aldrich, cat. I6634). The K86415-001-R-J1-PDC line was cultured in 6D media, which includes all 6C/Colon 1B media components minus the L-WRN conditioned media. The 485176-168-R4-J1-PDC was cultured in PANC media, which includes all 6C/Colon 1B media plus 100 ng/mL human FGF-10 (PeproTech, cat. 100-26), 500 nM SB-431542 (Selleckchem, cat. S1067), and 10 nM gastrin (Tocris Bioscience, cat. 3006). […]

[1] = second compound 0.0316 µM, first compound 0.00316 µM
[2] = second compound 0.0316 µM, first compound 0.01 µM
[3] = second compound 0.0316 µM, first compound 0.0316 µM
[4] = second compound 0.0316 µM, first compound 0.1 µM
[5] = second compound 0.0316 µM, first compound 0.316 µM
[6] = second compound 0.0316 µM, first compound 1 µM
[7] = second compound 0.1 µM, first compound 0.00316 µM
[8] = second compound 0.1 µM, first compound 0.01 µM
[9] = second compound 0.1 µM, first compound 0.0316 µM
[10] = second compound 0.1 µM, first compound 0.1 µM
[11] = second compound 0.1 µM, first compound 0.316 µM
[12] = second compound 0.1 µM, first compound 1 µM
[13] = second compound 0.316 µM, first compound 0.00316 µM
[14] = second compound 0.316 µM, first compound 0.01 µM
[15] = second compound 0.316 µM, first compound 0.0316 µM
[16] = second compound 0.316 µM, first compound 0.1 µM
[17] = second compound 0.316 µM, first compound 0.316 µM
[18] = second compound 0.316 µM, first compound 1 µM
[19] = second compound 1 µM, first compound 0.00316 µM
[20] = second compound 1 µM, first compound 0.01 µM
[21] = second compound 1 µM, first compound 0.0316 µM
[22] = second compound 1 µM, first compound 0.1 µM
[23] = second compound 1 µM, first compound 0.316 µM
[24] = second compound 1 µM, first compound 1 µM
[25] = second compound 3.16 µM, first compound 0.00316 µM
[26] = second compound 3.16 µM, first compound 0.01 µM
[27] = second compound 3.16 µM, first compound 0.0316 µM
[28] = second compound 3.16 µM, first compound 0.1 µM
[29] = second compound 3.16 µM, first compound 0.316 µM
[30] = second compound 3.16 µM, first compound 1 µM
[31] = second compound 10 µM, first compound 0.00316 µM
[32] = second compound 10 µM, first compound 0.01 µM
[33] = second compound 10 µM, first compound 0.0316 µM
[34] = second compound 10 µM, first compound 0.1 µM
[35] = second compound 10 µM, first compound 0.316 µM
[36] = second compound 10 µM, first compound 1 µM
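Note: spheroids exposed to compound for seven days before viability readout.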

With `C=CC(=O)Nc1cc(Nc2nccc(-c3cn(C)c4ccccc34)n2)c(OC)cc1N(C)CCN(C)C` + C#Cc1c(F)ccc2cc(O)cc(-c3ncc4c(N5CC6CCC(C5)N6)nc(OCC56CCCN5CC(F)C6)nc4c3F)c12 the IC50 (second compound 0.0316 µM) was over 1000 nM, the IC50 (second compound 0.1 µM) was over 1000 nM and the IC50 (second compound 0.316 µM) was over 1000 nM. The IC50 (second compound 1 µM) was over 1000 nM, the IC50 (second compound 3.16 µM) was over 1000 nM and the IC50 (second compound 10 µM) was 465 nM. For the same compound, the viability, T/C [1] was 97.1%, the viability, T/C [2] was 130% and the viability, T/C [3] was 95.5%. For the same compound, the viability, T/C [4] was 86.1%, the viability, T/C [5] was 84.3% and the viability, T/C [6] was 92.3%. For the same compound, the viability, T/C [7] was 93.5%, the viability, T/C [8] was 125% and the viability, T/C [9] was 82.3%. For the same compound, the viability, T/C [10] was 68.3%, the viability, T/C [11] was 80.2% and the viability, T/C [12] was 66.5%. The viability, T/C [13] was 86.7%, the viability, T/C [14] was 119% and the viability, T/C [15] was 85.8%. The viability, T/C [16] was 86.2%, the viability, T/C [17] was 89.5% and the viability, T/C [18] was 95.7%. It also gave a viability, T/C [19] of 80.2%, a viability, T/C [20] of 121% and a viability, T/C [21] of 85.3%. It also gave a viability, T/C [22] of 73.1%, a viability, T/C [23] of 89.2% and a viability, T/C [24] of 82.5%. The viability, T/C [25] was 73.6%, the viability, T/C [26] was 91.2% and the viability, T/C [27] was 84.9%. The viability, T/C [28] was 82.8%, the viability, T/C [29] was 67.6% and the viability, T/C [30] was 86.4%. It also gave a viability, T/C [31] of 55.6%, a viability, T/C [32] of 62% and a viability, T/C [33] of 88.9%. The viability, T/C [34] was 65.2%, the viability, T/C [35] was 72.9% and the viability, T/C [36] was 12.4%.
`CC(Nc1ccc2c(c1)OCCn1cc(N3C(=O)OCC3C(F)F)nc1-2)C(N)=O` (stereo unspecified) + C#Cc1c(F)ccc2cc(O)cc(-c3ncc4c(N5CC6CCC(C5)N6)nc(OCC56CCCN5CC(F)C6)nc4c3F)c12 was tested, and the IC50 (second compound 0.0316 µM) was 90 nM, the IC50 (second compound 0.1 µM) was 91.7 nM and the IC50 (second compound 0.316 µM) was 70 nM. It also gave an IC50 (second compound 1 µM) of 44.2 nM, an IC50 (second compound 3.16 µM) of 71 nM and an IC50 (second compound 10 µM) of under 31.6 nM. It also gave a viability, T/C [3] of 78.3%, a viability, T/C [4] of 43.2% and a viability, T/C [5] of 37.1%. The viability, T/C [6] was 11.6%, the viability, T/C (second compound 0.0316 µM, first compound 3.16 µM) was 11.7% and the viability, T/C (second compound 0.0316 µM, first compound 10 µM) was 11.8%. It also gave a viability, T/C [9] of 80.4%, a viability, T/C [10] of 39.4% and a viability, T/C [11] of 39.1%. The viability, T/C [12] was 19.9%, the viability, T/C (second compound 0.1 µM, first compound 3.16 µM) was 12.7% and the viability, T/C (second compound 0.1 µM, first compound 10 µM) was 11.2%. It also gave a viability, T/C [15] of 71%, a viability, T/C [16] of 39.7% and a viability, T/C [17] of 26.8%. It also gave a viability, T/C [18] of 16.9%, a viability, T/C (second compound 0.316 µM, first compound 3.16 µM) of 15.3% and a viability, T/C (second compound 0.316 µM, first compound 10 µM) of 13.7%. It also gave a viability, T/C [21] of 51.8%, a viability, T/C [22] of 45.9% and a viability, T/C [23] of 25.5%. It also gave a viability, T/C [24] of 12.4%, a viability, T/C (second compound 1 µM, first compound 3.16 µM) of 16.2% and a viability, T/C (second compound 1 µM, first compound 10 µM) of 10.6%. For the same compound, the viability, T/C [27] was 63.5%, the viability, T/C [28] was 42.7% and the viability, T/C [29] was 30.5%. For the same compound, the viability, T/C [30] was 12.9%, the viability, T/C (second compound 3.16 µM, first compound 3.16 µM) was 12.8% and the viability, T/C (second compound 3.16 µM, first compound 10 µM) was 13.5%. It also gave a viability, T/C [33] of 35.9%, a viability, T/C [34] of 28.3% and a viability, T/C [35] of 9.51%. The viability, T/C [36] was 4.69%, the viability, T/C (second compound 10 µM, first compound 3.16 µM) was 5.91% and the viability, T/C (second compound 10 µM, first compound 10 µM) was 2.82%.
`O=C(c1ccc(F)c(F)c1Nc1ccc(I)cc1F)N1CC(O)([C@@H]2CCCCN2)C1` + C#Cc1c(F)ccc2cc(O)cc(-c3ncc4c(N5CC6CCC(C5)N6)nc(OCC56CCCN5CC(F)C6)nc4c3F)c12 gave an IC50 (second compound 0.0316 µM) of under 3.16 nM, an IC50 (second compound 0.1 µM) of under 3.16 nM and an IC50 (second compound 0.316 µM) of under 3.16 nM. The IC50 (second compound 1 µM) was under 3.16 nM, the IC50 (second compound 3.16 µM) was under 3.16 nM and the IC50 (second compound 10 µM) was under 3.16 nM. For the same compound, the viability, T/C [1] was 47.9%, the viability, T/C [2] was 37.5% and the viability, T/C [3] was 36.9%. The viability, T/C [4] was 15.6%, the viability, T/C [5] was 7.05% and the viability, T/C [6] was 5.82%. The viability, T/C [7] was 44.8%, the viability, T/C [8] was 39.8% and the viability, T/C [9] was 29.3%. The viability, T/C [10] was 14.2%, the viability, T/C [11] was 7.41% and the viability, T/C [12] was 4.83%. It also gave a viability, T/C [13] of 46%, a viability, T/C [14] of 32.6% and a viability, T/C [15] of 24.1%. For the same compound, the viability, T/C [16] was 13.3%, the viability, T/C [17] was 5.32% and the viability, T/C [18] was 5.62%. For the same compound, the viability, T/C [19] was 38.6%, the viability, T/C [20] was 31.1% and the viability, T/C [21] was 21.9%. The viability, T/C [22] was 10.9%, the viability, T/C [23] was 5.57% and the viability, T/C [24] was 4.89%. It also gave a viability, T/C [25] of 36.8%, a viability, T/C [26] of 22.8% and a viability, T/C [27] of 16%. For the same compound, the viability, T/C [28] was 8.92%, the viability, T/C [29] was 6.05% and the viability, T/C [30] was 4.36%. It also gave a viability, T/C [31] of 16.8%, a viability, T/C [32] of 7.65% and a viability, T/C [33] of 3.23%. The viability, T/C [34] was 4.71%, the viability, T/C [35] was 2.14% and the viability, T/C [36] was 0.87%.
